{
  "source": "patent US10562850B2",
  "about": "“Human plasma kallikrein inhibitors” (priority 2015, dated 2020)",
  "data": [
    {"target": "human plasma kallikrein (Homo sapiens (Human), UniProt P03952)", "sequence (P03952 391-638)": "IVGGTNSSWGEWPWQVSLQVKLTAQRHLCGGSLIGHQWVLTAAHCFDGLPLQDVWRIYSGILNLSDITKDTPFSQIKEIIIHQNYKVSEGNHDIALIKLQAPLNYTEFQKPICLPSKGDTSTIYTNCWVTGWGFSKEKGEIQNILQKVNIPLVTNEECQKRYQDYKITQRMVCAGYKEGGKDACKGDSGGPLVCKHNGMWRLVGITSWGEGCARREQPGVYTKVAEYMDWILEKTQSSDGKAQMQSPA", "sequence (P03952 20-390 partner)": "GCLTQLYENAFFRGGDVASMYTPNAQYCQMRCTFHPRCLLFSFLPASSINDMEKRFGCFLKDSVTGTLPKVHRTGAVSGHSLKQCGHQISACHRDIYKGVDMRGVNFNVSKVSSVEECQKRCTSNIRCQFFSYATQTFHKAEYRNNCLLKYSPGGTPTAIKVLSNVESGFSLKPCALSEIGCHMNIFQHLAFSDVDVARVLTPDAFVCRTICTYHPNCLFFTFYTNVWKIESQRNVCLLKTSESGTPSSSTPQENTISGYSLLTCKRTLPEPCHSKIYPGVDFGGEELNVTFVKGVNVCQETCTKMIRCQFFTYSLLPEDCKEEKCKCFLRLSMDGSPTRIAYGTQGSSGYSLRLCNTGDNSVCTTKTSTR", "assay": "Plasma Kallikrein Activity Assay (chromogenic substrate S2302)", "assay_type": "biochemical", "conditions": "2 nM kallikrein, 80 μM S2302, 30° C., pH 7.8; Cheng-Prusoff", "protocol": "Plasma Kallikrein Activity Assay.\nThe effect of compounds of the invention on human plasma kallikrein activity was determined using the chromogenic substrates (DiaPharma Group, Inc., West Chester, Ohio, USA). In these experiments, 2 nM kallikrein (Enzyme Research Laboratories, South Bend, Ind., USA) was incubated with 80 μM S2302 (H-D-Pro-Phe-Arg-p-nitroaniline) in the absence or presence of increasing concentrations of compounds of the invention in a final volume of 200 μL Tris-HCl buffer (200 mM NaCl; 2.5 mM CaCl2; 50 mM Tris-HCl, pH 7.8).\nAfter incubation at 30° C., the activity of kallikrein was measured as a change in absorbance at OD 405 nm using BioTek PowerWave X340 Microplate Reader (Winooski, Vt., USA). Data were analyzed using SigmaPlot software (Systat Software, Inc., San Jose, Calif., USA) (Four Parameter Logistic Curve). Ki values for the inhibitors were determined using the Cheng-Prusoff equation (Biochem. Pharmacol. 1973, 22, 3099).", "units": {"Ki": "nM"}, "values": [
      {"smiles": "O=C(Nc1ccccc1F)[C@H]1C[C@@H](O)CN1C(=O)Nc1ccc(Cl)cc1", "note": "[Compound 2a, (2R,4R)-N1-(4-chlorophenyl)-N2-(2-fluorophenyl)-4-hydroxypyrrolidine-1,2-dicarboxamide]", "Ki": "> 100"},
      {"smiles": "CO[C@@H]1C[C@H](C(=O)Nc2cc(C(N)(CCC3CC3)c3ccncc3)ccc2F)N(C(=O)Nc2ccc(Cl)s2)C1", "note": "(stereo partly drawn) [Compound 81h, (2R,4R)-N2-(5-((−)-1-amino-3-cyclopropyl-1-(pyridin-4-yl)propyl)-2-fluorophenyl)-N1-(5-chlorothiophen-2-yl)-4-methoxypyrrolidine-1,2-dicarboxamide]", "Ki": "< 50"},
      {"smiles": "CCO[C@@H]1C[C@H](C(=O)Nc2cc(C(CCC3CC3)(NS(C)(=O)=O)c3ccncc3)ccc2F)N(C(=O)Nc2ccc(Cl)cn2)C1", "note": "(stereo partly drawn) [Compound 55a, (2R,4R)-N1-(5-chloropyridin-2-yl)-N2-(5-((+)-3-cyclopropyl-1-(methylsulfonamido)-1-(pyridin-4-yl)propyl)-2-fluorophenyl)-4-ethoxypyrrolidine-1,2-dicarboxamide]", "Ki": "< 50"},
      {"smiles": "N#Cc1cccc(C(N)(CCC2CC2)c2ccc(F)c(NC(=O)[C@H]3C[C@@H](N)CN3C(=O)Nc3ccc(Cl)cc3)c2)c1", "note": "(stereo partly drawn) [Compound 19c, (2R,4R)-4-amino-N2-(5-((+)-1-amino-1-(3-cyanophenyl)-3-cyclopropylpropyl)-2-fluorophenyl)-N1-(4-chlorophenyl)pyrrolidine-1,2-dicarboxamide]", "Ki": "> 100"},
      {"smiles": "CO[C@@H]1C[C@H](C(=O)Nc2cc(C(N)(CCC3CC3)c3ccnc(C)c3)ccc2F)N(C(=O)Nc2ccc(Cl)cn2)C1", "note": "(stereo partly drawn) [Compound 46k, (2R,4R)-N2-(5-((+)-1-amino-3-cyclopropyl-1-(2-methylpyridin-4-yl)propyl)-2-fluorophenyl)-N1-(5-chloropyridin-2-yl)-4-methoxypyrrolidine-1,2-dicarboxamide]", "Ki": "< 50"},
      {"smiles": "CO[C@]1(c2ccccc2)C[C@H](C(=O)Nc2cc(C(N)(CCC3CC3)c3ccncc3)ccc2F)N(C(=O)Nc2ccc(Cl)cn2)C1", "note": "(stereo partly drawn) [Compound 45c, (2R,4S)-N2-(5-((+)-1-amino-3-cyclopropyl-1-(pyridin-4-yl)propyl)-2-fluorophenyl)-N1-(5-chloropyridin-2-yl)-4-methoxy-4-phenylpyrrolidine-1,2-dicarboxamide]", "Ki": "> 100"},
      {"smiles": "CO[C@@H]1C[C@H](C(=O)Nc2cc(C(N)(CCC3CC3)c3ccccn3)ccc2F)N(C(=O)Nc2ccc(Cl)cn2)C1", "note": "(stereo partly drawn) [Compound 37d, (2R,4R)-N2-(5-((+)-1-amino-3-cyclopropyl-1-(pyridin-2-yl)propyl)-2-fluorophenyl)-N1-(5-chloropyridin-2-yl)-4-methoxypyrrolidine-1,2-dicarboxamide]", "Ki": "< 50"},
      {"smiles": "CC(C)(C)[S@@+]([O-])NC(CCC1CC1)(c1cccc(C#N)c1)c1ccc(F)c(NC(=O)[C@H]2CCCN2C(=O)OCc2ccccc2)c1", "note": "(stereo partly drawn) [Compound 12b, (R)-benzyl 2-(5-((−)-1-(3-cyanophenyl)-3-cyclopropyl-1-((R)-1,1-dimethylethylsulfinamido)propyl)-2-fluorophenylcarbamoyl)pyrrolidine-1-carboxylate]", "Ki": "> 100"},
      {"smiles": "CO[C@@H]1C[C@H](C(=O)Nc2cc(C(N)(CCC3CC3)c3cccc(C#N)c3)ccc2F)N(C(=O)Nc2ccc(C#N)cc2)C1", "note": "(stereo partly drawn) [Compound 15f, (2R,4R)-N2-(5-((+)-1-amino-1-(3-cyanophenyl)-3-cyclopropylpropyl)-2-fluorophenyl)-N1-(4-cyanophenyl)-4-methoxypyrrolidine-1,2-dicarboxamide]", "Ki": "> 100"},
      {"smiles": "N#Cc1cccc(C(N)(CCC2CC2)c2ccc(F)c(NC(=O)[C@H]3C[C@@H](O)CN3C(=O)Nc3ccc([N+](=O)[O-])cc3)c2)c1", "note": "(stereo partly drawn) [Compound 25b, (2R,4R)-N2-(5-((+)-1-amino-1-(3-cyanophenyl)-3-cyclopropylpropyl)-2-fluorophenyl)-4-hydroxy-N1-(4-nitrophenyl)pyrrolidine-1,2-dicarboxamide]", "Ki": "> 100"},
      {"smiles": "N#Cc1cccc(C(N)(CCC2CC2)c2ccc(F)c(NC(=O)[C@H]3C[C@@H](O)CN3C(=O)Nc3ccc(N)cc3)c2)c1", "note": "(stereo partly drawn) [Compound 28b, (2R,4R)-N2-(5-((+)-1-amino-1-(3-cyanophenyl)-3-cyclopropylpropyl)-2-fluorophenyl)-N1-(4-aminophenyl)-4-hydroxypyrrolidine-1,2-dicarboxamide]", "Ki": "> 100"},
      {"smiles": "CO[C@@H]1C[C@H](C(=O)Nc2cc(C(CCC3CC3)n3ccccc3=O)ccc2F)N(C(=O)Nc2ccc(Cl)cn2)C1", "note": "(stereo partly drawn) [Compound 43m, (2R,4R)-N1-(5-chloropyridin-2-yl)-N2-(5-((+)-3-cyclopropyl-1-(2-oxopyridin-1(2H)-yl)propyl)-2-fluorophenyl)-4-methoxypyrrolidine-1,2-dicarboxamide]", "Ki": "50 to 100"},
      {"smiles": "CNC(CCC1CC1)(c1ccnc(C)c1)c1ccc(F)c(NC(=O)[C@H]2C[C@@H](OC)CN2C(=O)Nc2ccc(Cl)cn2)c1", "note": "(stereo partly drawn) [Compound 79a, (2R,4R)-N1-(5-chloropyridin-2-yl)-N2-(5-((+)-3-cyclopropyl-1-(methylamino)-1-(2-methylpyridin-4-yl)propyl)-2-fluorophenyl)-4-methoxypyrrolidine-1,2-dicarboxamide]", "Ki": "< 50"},
      {"smiles": "CO[C@@H]1C[C@H](C(=O)Nc2cc(C(N)(CCC3CC3)c3ccncc3)ccc2F)N(C(=O)Cc2ccc(Cl)cc2)C1", "note": "(stereo partly drawn) [Compound 76e, (2R,4R)-N-(5-((+)-1-amino-3-cyclopropyl-1-(pyridin-4-yl)propyl)-2-fluorophenyl)-1-(2-(4-chlorophenyl)acetyl)-4-methoxypyrrolidine-2-carboxamide]", "Ki": "> 100"},
      {"smiles": "CC(C)(C)[S@@+]([O-])NC(CCC1CC1)(c1cccc(C#N)c1)c1ccc(F)c(NC(=O)[C@H]2C[C@H](O)CN2C(=O)Nc2ccc(Cl)cc2)c1", "note": "(stereo partly drawn) [Compound 9b, (2R,4S)-N1-(4-chlorophenyl)-N2-(5-((+)-1-(3-cyanophenyl)-3-cyclopropyl-1-((R)-1,1-dimethylethylsulfinamido)propyl)-2-fluorophenyl)-4-hydroxypyrrolidine-1,2-dicarboxamide]", "Ki": "> 100"},
      {"smiles": "N#Cc1cccc(C(N)(CCC2CC2)c2ccc(F)c(NC(=O)[C@H]3C[C@](O)(c4ccccc4)CN3C(=O)Nc3ccc(Cl)cn3)c2)c1", "note": "(stereo partly drawn) [Compound 29e, (2R,4S)-N2-(5-((+)-1-amino-1-(3-cyanophenyl)-3-cyclopropylpropyl)-2-fluorophenyl)-N1-(5-chloropyridin-2-yl)-4-hydroxy-4-phenylpyrrolidine-1,2-dicarboxamide]", "Ki": "< 50"},
      {"smiles": "CO[C@H]1C[C@@H](C(=O)Nc2cc(C(CCC3CC3)(N[S@+]([O-])C(C)(C)C)c3cccc(C#N)c3)ccc2F)N(C(=O)Nc2ccc(Cl)cc2)C1", "note": "(stereo partly drawn) [Compound 11d, (2S,4S)-N1-(4-chlorophenyl)-N2-(5-(1-(3-cyanophenyl)-3-cyclopropyl-1-((R)-1,1-dimethylethylsulfinamido)propyl)-2-fluorophenyl)-4-methoxypyrrolidine-1,2-dicarboxamide]", "Ki": "> 100"},
      {"smiles": "CO[C@@H]1C[C@H](C(=O)Nc2cc(C(CCC3CC3)N3CCCCC3=O)ccc2F)N(C(=O)Nc2ccc(Cl)cn2)C1", "note": "(stereo partly drawn) [Compound 44e, (2R,4R)-N1-(5-chloropyridin-2-yl)-N2-(5-((+)-3-cyclopropyl-1-(2-oxopiperidin-1-yl)propyl)-2-fluorophenyl)-4-methoxypyrrolidine-1,2-dicarboxamide]", "Ki": "> 100"}
    ]}
  ]
}
